These results are taken from paper PMC6636992 (Science Advances, 2019).

Ends that are not written are not given here. * marks the point of attachment. Isobutyryl(2-OH) = CC(C)(O)C(=O)*

One test deals with CobB. Briefly: LC-MS detection of deacylation of gpmA peptides by CobB. Type of test: biochemical, P. mirabilis.
A further test concerns recombinant ENO. Type of test: biochemical, P. mirabilis. The following applies: NAM 10 mM with CobB and NAD^+, 25°C, 10 hours, Western blotting. (Immunoblotting shows a protein as a band on a membrane.)
The next test deals with P. mirabilis. Briefly: Growth curve of overexpressing P. mirabilis. Type of test: cell-based. The following applies: ENO WT or mutant-overexpressing P. mirabilis, OD600, 37°C.
The test system of a further test is R58M mutant CobB. Briefly: LC-MS detection of deacylation of gpmA peptides by R58M mutant CobB. Type of test: biochemical, P. mirabilis. The conditions noted are these: 50 μM peptide, 1 μM CobB, 1 mM NAD^+, pH 8.5, 37°C, 2 hours.
The subject of another test is R58M CobB. Briefly: ITC affinity of Khib peptide with R58M CobB. Type of test: binding, P. mirabilis. The conditions noted are these: 37°C.
The next test concerns WT CobB. In words: De-2-hydroxyisobutyrylation kinetics by MALDI-TOF MS, WT CobB. Type of test: biochemical, P. mirabilis.
The next test has as its system Y55F CobB. Briefly: De-2-hydroxyisobutyrylation kinetics by MALDI-TOF MS, Y55F CobB. Type of test: biochemical, P. mirabilis.
A further test has as its target R58M CobB (P. mirabilis). Briefly: ITC. Background: ITC needs no label: the signal is the heat of the interaction.
For test [1], the target named is recombinant CobB (WT) (P. mirabilis). In words: ITC.
For a further test, the target named is Y55F CobB (P. mirabilis). Briefly: ITC.
[2] abbreviates: Km for peptide, MALDI-TOF MS, 1 mM NAD^+, pH 8.5, 37°C, 2 min.
[3] abbreviates: MALDI-TOF MS, 1 mM NAD^+, pH 8.5, 37°C, 2 min, 2-285 μM peptide.

As usually defined, the kcat/Km is the second-order rate constant that governs catalysis at low substrate concentration. A word on the Km: it is the substrate concentration at which the rate is half of its maximum. The term kcat denotes the number of substrate molecules converted per active site and unit of time at saturation. The term Kd denotes the concentration at which binding is half-saturated.

Turning to `NC(=O)c1cccnc1` [NAM, nicotinamide], in the test with CobB (NAM 10 mM), the “inhibitory effect on removal of Khib relative to other acyl groups” value was “greatest inhibitory effect on Khib” and the “inhibitory effect on removal of Ksucc relative to other acyl groups” value is given as “least effect on Ksucc”. For the same molecule, the “inhibition of de-2-hydroxyisobutyrylation reaction” value with CobB (NAM 10 mM, 50 μM peptide, 1 μM CobB) is listed as “inhibited efficiently”. In addition, the “change of modifications of ENO with NAD^+ and NAM” value in the test on recombinant ENO was “no significant change in the modifications of ENO”.

On to ENO-K326Q/K343T, for which, in the test on P. mirabilis, the growth rate result was “the lowest”.

Consider “ENO: enolase of P. mirabilis, His-tagged fusion protein”, for which, in the test on P. mirabilis, the growth rate entry is reported as “faster than that of mutated ENO-overexpressing P. mirabilis”.

Consider YGDEQVK(hib)QWR, for which the “deacylated peptide after treatment with R58M mutant” value with R58M mutant CobB was “not detectable”. In addition, the “change of affinity of R58M CobB compared with WT CobB” value with R58M CobB is “significantly decreased eight times”. The “hydrolysis by CobB in the presence of NAD^+” value in the test with CobB (50 μM peptide, 1 μM CobB, 1 mM NAD^+, pH 8.5, 37°C, 2 hours) was “efficiently catalyzed the hydrolysis”. The “de-2-hydroxyisobutyrylated peptide without NAD^+” value in the test with CobB (50 μM peptide, 1 μM CobB, without NAD^+) was “not detected”. For the same molecule, the kcat/Km in the test with WT CobB is 1.7e+10 M⁻¹ s⁻¹; in the test with Y55F CobB it was 8.3e+09 M⁻¹ s⁻¹. Besides, the Km in the test on WT CobB (setting [2]) stood at 13.3 ± 1.6 µM; with Y55F CobB (setting [2]) it was 12.2 ± 2 µM. For the same molecule, the results for the kcat with WT CobB (setting [3]) and with Y55F CobB (setting [3]) were 0.225 ± 0.011 s⁻¹ and 0.101 ± 0.006 s⁻¹, respectively.

Consider YGDEQVK(Isobutyryl(2-OH))QWR [2-hydroxyisobutyrylated peptide [YGDEQVK(hib)QWR]], for which the values for the Kd (in the test with R58M CobB (P. mirabilis); in test [1]; with Y55F CobB (P. mirabilis)) were 15.9 µM, 2.03 µM and 2.34 µM, respectively.
